Measurements as given in patent US20240343740A1, “MACROCYCLIC GLUCAGON-LIKE PEPTIDE 1 RECEPTOR AGONISTS” (Eli Lilly and Company, priority 2021, published 2024).

How the values were obtained:
human GLP-1R [1] = biological target: T1, human GLP-1R (Homo sapiens, UniProt P43220); assay: Human GLP-1 Receptor HEK293 cell cAMP assay, 581 fmol/mg GLP-1R expression density; format: cell-based; set-up: expressed in transfected cells; host or cells: HEK293 clonal cell line; details: HEK293 cell line with 581 fmol/mg expression density of GLP-1R; for EC50: geometric mean, read-out: EC50 nM (SEM, n), intracellular cAMP response, relative EC50; for Emax: percent of maximal response to GLP-1(7-36)NH2, arithmetic mean, read-out: Emax % (SEM, n), intracellular cAMP response
T1 sequence (P43220 24-463): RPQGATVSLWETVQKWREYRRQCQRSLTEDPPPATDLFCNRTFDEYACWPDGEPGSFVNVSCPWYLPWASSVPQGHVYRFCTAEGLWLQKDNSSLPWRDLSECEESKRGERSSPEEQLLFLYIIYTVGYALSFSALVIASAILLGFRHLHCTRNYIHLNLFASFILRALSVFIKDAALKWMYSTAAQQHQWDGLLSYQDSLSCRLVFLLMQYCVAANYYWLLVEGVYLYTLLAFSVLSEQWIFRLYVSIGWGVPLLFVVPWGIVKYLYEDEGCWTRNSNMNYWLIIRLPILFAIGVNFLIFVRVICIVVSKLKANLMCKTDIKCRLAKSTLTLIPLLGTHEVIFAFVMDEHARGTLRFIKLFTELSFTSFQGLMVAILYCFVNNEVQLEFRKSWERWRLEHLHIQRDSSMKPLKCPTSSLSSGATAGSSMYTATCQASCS
Description: (§1) Human GLP-1 Receptor HEK293 Cell cAMP Assay
(§2) GLP-1 Receptor functional activity is determined using cAMP formation in an HEK293 clonal cell line expressing human GLP-1R (NCBI accession number NP_002053) at an expression density of 581±94 (n=6) and 104±12 (n=5) fmol/mg protein (determined using [^125I]GLP-1(7-36)NH2 homologous competition binding analysis). The hGLP-1R receptor expressing cells are treated with compound (20 point concentration-response curve in DMSO, 2.75-fold Labcyte Echo direct dilution, 384 well plate Corning Cat #3570) in DMEM (Gibco Cat #31053) supplemented with 1× GlutaMAX™ (Gibco Cat #35050), 0.1% bovine casein (Sigma C4765-10ML), 250 μM IBMX (3-Isobutyl-1-methylxanthine, Acros Cat #228420010) and 20 mM HEPES (Gibco Cat #15630) in a 20 μL assay volume (final DMSO concentration is 0.5%). After a 30 min incubation at 37° C., the resulting increase in intracellular cAMP is quantitatively determined using the CisBio cAMP Dynamic 2 HTRF Assay Kit (62AM4PEJ). Briefly, cAMP levels within the cell are detected by adding the cAMP-d2 conjugate in cell lysis buffer (10 μL) followed by the antibody anti-cAMP-Eu^3+-Cryptate, also in cell lysis buffer (10 μL). The resulting competitive assay is incubated for at least 60 min at RT, then detected using a PerkinElmer Envision® instrument with excitation at 320 nm and emission at 665 nm and 620 nm. Envision units (emission at 665 nm/620 nm*10,000) are inversely proportional to the amount of cAMP present and are converted to nM cAMP per well using a cAMP standard curve. The amount of cAMP generated (nM) in each well is converted to a percent of the maximal response observed with human GLP-1(7-36)NH2. A relative EC50 value and percent top (Emax) are derived by non-linear regression analysis using the percent maximal response vs. the concentration of compound added, fitted to a four-parameter logistic equation.

human GLP-1R [2] = biological target: T1, human GLP-1R; assay: Human GLP-1 Receptor HEK293 cell cAMP assay, 104 fmol/mg GLP-1R expression density; format: cell-based; set-up: expressed in transfected cells; host or cells: HEK293 clonal cell line; details: HEK293 cell line with 104 fmol/mg expression density of GLP-1R; for EC50: geometric mean, read-out: EC50 nM (SEM, n), intracellular cAMP response, relative EC50; for Emax: percent of maximal response to GLP-1(7-36)NH2, arithmetic mean, read-out: Emax % (SEM, n), intracellular cAMP response
Description: as §1, §2

Row | Structure (SMILES) | EC50 (human GLP-1R [1]) [nM] | Emax (human GLP-1R [1]) [%] | EC50 (human GLP-1R [2]) [nM] | Emax (human GLP-1R [2]) [%]
1 | COc1cc(C(=O)O)cc2c1nc(Cc1cc(C)c3cc1OCCCc1nc(C(F)(F)F)ccc1COc1cccc-3n1)n2C[C@@H]1CCO1 [Example 26, (S)-4-Methoxy-2-((1^6-methyl-5^6-(trifluoromethyl)-3,9-dioxa-2(2,6),5(3,2)-dipyridina-1(1,3)-benzenacyclononaphane-1^4-yl)methyl)-1-(oxetan-2-ylmethyl)-1H-benzo[d]imidazole-6-carboxylic acid; 1,3,4,6,7,8-hexahydro-2H-pyrimido[1,2-a]pyrimidine] | 1.66 | 116 | 5.64 | 91.3
2 | Cc1nc(CCOc2cc(C(=O)O)cc3c2nc(Cc2ccc4cc2OCCCc2cc(C#N)ccc2COc2cccc-4n2)n3C[C@@H]2CCO2)co1 [Example 53, (S)-2-((5^4-Cyano-3,9-dioxa-2(2,6)-pyridina-1(1,3),5(1,2)-dibenzenacyclononaphane-1^4-yl)methyl)-4-(2-(2-methyloxazol-4-yl)ethoxy)-1-(oxetan-2-ylmethyl)-1H-benzo[d]imidazole-6-carboxylic acid] | 77.8 | 104 | 293 | 58
3 | O=C(O)c1ccc2nc(Cc3ccc4cc3OCCCc3cc(-c5cn[nH]c5)ccc3COc3cccc-4n3)n(C[C@@H]3CCO3)c2c1 [Example 30, (S)-2-((5^4-(1H-Pyrazol-4-yl)-3,9-dioxa-2(2,6)-pyridina-1(1,3),5(1,2)-dibenzenacyclononaphane-1^4-yl)methyl)-1-(oxetan-2-ylmethyl)-1H-benzo[d]imidazole-6-carboxylic acid] | 35.6 | 98.1 | 118 | 77.1
4 | COc1cc(C(=O)O)cc2c1nc(Cc1cc(C)c3cc1OCCCc1cnccc1COc1cccc-3n1)n2C[C@@H]1CCO1 [Example 27, (S)-4-Methoxy-2-((1^6-methyl-3,9-dioxa-2(2,6),5(4,3)-dipyridina-1(1,3)-benzenacyclononaphane-1^4-yl)methyl)-1-(oxetan-2-ylmethyl)-1H-benzo[d]imidazole-6-carboxylic acid] | 50.7 | 107 | 165 | 82.5
5 | Cn1cc(-c2ccc3c(c2)CCCOc2cc(ccc2Cc2nc4ccc(C(=O)O)cc4n2C[C@@H]2CCO2)-c2cccc(n2)OC3)ccc1=O [Example 36, (S)-2-((5^4-(1-Methyl-6-oxo-1,6-dihydropyridin-3-yl)-3,9-dioxa-2(2,6)-pyridina-1(1,3),5(1,2)-dibenzenacyclononaphane-1^4-yl)methyl)-1-(oxetan-2-ylmethyl)-1H-benzo[d]imidazole-6-carboxylic acid] | 44 | 108 | 149 | 80
6 | Cn1cc(-c2ccc3c(c2)CCCOc2cc(ccc2Cc2nc4ccc(C(=O)O)cc4n2C[C@@H]2CCO2)-c2cccc(n2)OC3)cn1 [Example 40, (S)-2-((5^4-(1-Methyl-1H-pyrazol-4-yl)-3,9-dioxa-2(2,6)-pyridina-1(1,3),5(1,2)-dibenzenacyclononaphane-1^4-yl)methyl)-1-(oxetan-2-ylmethyl)-1H-benzo[d]imidazole-6-carboxylic acid] | 42.4 | 110 | 154 | 85.9
7 | N#Cc1ccc2c(c1)CCCOc1cc(ccc1Cc1nc3ccc(C(=O)O)nc3n1C[C@@H]1CCO1)-c1cccc(n1)OC2 [Example 6, (S)-2-((5^4-Cyano-3,9-dioxa-2(2,6)-pyridina-1(1,3),5(1,2)-dibenzenacyclononaphane-1^4-yl)methyl)-3-(oxetan-2-ylmethyl)-3H-imidazo[4,5-b]pyridine-5-carboxylic acid] | 166 | 97.2 | 1020 | 89.1
8 | N#Cc1ccc2c(c1)OCCc1cc(c(F)cc1Cc1nc3ccc(C(=O)O)cc3n1C[C@@H]1CCO1)-c1cccc(n1)OC2 [Example 42, (S)-2-((5^4-Cyano-1^6-fluoro-3,6-dioxa-2(2,6)-pyridina-1(1,3),5(1,2)-dibenzenacyclooctaphane-1^4-yl)methyl)-1-(oxetan-2-ylmethyl)-1H-benzo[d]imidazole-6-carboxylic acid] | 187 | 103 | 539 | 66.4
9 | N#Cc1ccc2cc1CCOCc1cc(ccc1Cc1nc3ccc(C(=O)O)cc3n1C[C@@H]1CCO1)-c1cccc(n1)OC2 [Example 21, (S)-2-((5^4-Cyano-3,8-dioxa-2(2,6)-pyridina-1,5(1,3)-dibenzenacyclononaphane-1^4-yl)methyl)-1-(oxetan-2-ylmethyl)-1H-benzo[d]imidazole-6-carboxylic acid] | 35.1 | 111 | 133 | 95.6
10 | Cn1ccc(-c2ccc3c(c2)CCCOc2cc(ccc2Cc2nc4ccc(C(=O)O)cc4n2C[C@@H]2CCO2)-c2cccc(n2)OC3)cc1=O [Example 79, (S)-2-((5^4-(1-Methyl-2-oxo-1,2-dihydropyridin-4-yl)-3,9-dioxa-2(2,6)-pyridina-1(1,3),5(1,2)-dibenzenacyclononaphane-1^4-yl)methyl)-1-(oxetan-2-ylmethyl)-1H-benzo[d]imidazole-6-carboxylic acid] | 369 | 34.7 | 648 | 9.53

Next, values leading:

Row | EC50 (human GLP-1R [1]) [nM] | Emax (human GLP-1R [1]) [%] | EC50 (human GLP-1R [2]) [nM] | Emax (human GLP-1R [2]) [%] | Structure (SMILES)
11 | 3.11 | 92.3 | 12.6 | 95 | COCCOc1cc(C(=O)O)cc2c1nc(Cc1cc(F)c3cc1COCCc1cc(C#N)cc(F)c1COc1cccc-3n1)n2C[C@@H]1CCO1 [Example 70, (S)-2-((5^4-Cyano-1^6,5^6-difluoro-3,8-dioxa-2(2,6)-pyridina-1(1,3),5(1,2)-dibenzenacyclononaphane-1^4-yl)methyl)-4-(2-methoxyethoxy)-1-(oxetan-2-ylmethyl)-1H-benzo[d]imidazole-6-carboxylic acid]
12 | 40.8 | 112 | 111 | 85 | CS(=O)(=O)c1ccc(-c2ccc3c(c2)CCCOc2cc(ccc2Cc2nc4ccc(C(=O)O)cc4n2C[C@@H]2CCO2)-c2cccc(n2)OC3)cc1 [Example 33, (S)-2-((5^4-(4-(Methylsulfonyl)phenyl)-3,9-dioxa-2(2,6)-pyridina-1(1,3),5(1,2)-dibenzenacyclononaphane-1^4-yl)methyl)-1-(oxetan-2-ylmethyl)-1H-benzo[d]imidazole-6-carboxylic acid]
13 | 50.3 | 115 | 169 | 94.9 | O=C(O)c1ccc2nc(Cc3ccc4cc3OCCCc3cc(Br)ccc3COc3cccc-4n3)n(C[C@@H]3CCO3)c2c1 [Example 18, (S)-2-((5^4-Bromo-3,9-dioxa-2(2,6)-pyridina-1(1,3),5(1,2)-dibenzenacyclononaphane-1^4-yl)methyl)-1-(oxetan-2-ylmethyl)-1H-benzo[d]imidazole-6-carboxylic acid]
14 | 25.1 | 110 | 116 | 108 | COCCOc1cc(C(=O)O)cc2c1nc(Cc1cc(F)c3cc1CCOCc1cc(ccc1Cl)COc1cccc-3n1)n2C[C@@H]1CCO1 [Example 47, (S)-2-((5^4-Chloro-1^6-fluoro-3,7-dioxa-2(2,6)-pyridina-1,5(1,3)-dibenzenacyclononaphane-1^4-yl)methyl)-4-(2-methoxyethoxy)-1-(oxetan-2-ylmethyl)-1H-benzo[d]imidazole-6-carboxylic acid]
15 | 2.33 | 112 | 8.39 | 85.5 | COCCOc1cc(C(=O)O)cc2c1nc(Cc1ccc3cc1COCCc1cc(C#N)ccc1COc1ccc(F)c-3n1)n2C[C@@H]1CCO1 [Example 49, (S)-2-((5^4-Cyano-2^3-fluoro-3,8-dioxa-2(2,6)-pyridina-1(1,3),5(1,2)-dibenzenacyclononaphane-1^4-yl)methyl)-4-(2-methoxyethoxy)-1-(oxetan-2-ylmethyl)-1H-benzo[d]imidazole-6-carboxylic acid]
